Experimental data from publication PMC7340849 (Bioorganic & medicinal chemistry letters, 2020).

Assays:
D1R [1] = biological target: T1, D1R (Homo sapiens, UniProt P21728); experiment: Binding affinity at dopamine D1R, [3H]SCH23390 radioligand; settings: for selectivity D1R over D5R: from Ki values
D5R = D5R (Homo sapiens, UniProt P21918); experiment: Binding affinity at dopamine D5R, [3H]SCH23390 radioligand; settings: from Ki values
D1R [2] = biological target: T1, D1R; experiment: D1R agonist/antagonist assays measuring cAMP modulation; settings: agonist mode

T1 sequence (P21728 whole entry): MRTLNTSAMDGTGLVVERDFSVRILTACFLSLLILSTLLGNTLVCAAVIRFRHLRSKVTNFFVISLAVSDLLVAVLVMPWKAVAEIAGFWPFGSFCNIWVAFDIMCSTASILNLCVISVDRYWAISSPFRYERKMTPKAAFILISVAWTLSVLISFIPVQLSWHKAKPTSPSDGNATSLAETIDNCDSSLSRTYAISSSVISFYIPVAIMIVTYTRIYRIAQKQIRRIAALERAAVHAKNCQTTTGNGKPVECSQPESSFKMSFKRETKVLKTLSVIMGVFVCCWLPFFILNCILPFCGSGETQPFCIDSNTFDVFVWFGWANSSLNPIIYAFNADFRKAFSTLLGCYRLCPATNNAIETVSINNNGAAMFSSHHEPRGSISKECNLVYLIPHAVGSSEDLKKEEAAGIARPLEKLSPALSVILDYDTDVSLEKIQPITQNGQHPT
Chain of D5R (P21918 whole entry): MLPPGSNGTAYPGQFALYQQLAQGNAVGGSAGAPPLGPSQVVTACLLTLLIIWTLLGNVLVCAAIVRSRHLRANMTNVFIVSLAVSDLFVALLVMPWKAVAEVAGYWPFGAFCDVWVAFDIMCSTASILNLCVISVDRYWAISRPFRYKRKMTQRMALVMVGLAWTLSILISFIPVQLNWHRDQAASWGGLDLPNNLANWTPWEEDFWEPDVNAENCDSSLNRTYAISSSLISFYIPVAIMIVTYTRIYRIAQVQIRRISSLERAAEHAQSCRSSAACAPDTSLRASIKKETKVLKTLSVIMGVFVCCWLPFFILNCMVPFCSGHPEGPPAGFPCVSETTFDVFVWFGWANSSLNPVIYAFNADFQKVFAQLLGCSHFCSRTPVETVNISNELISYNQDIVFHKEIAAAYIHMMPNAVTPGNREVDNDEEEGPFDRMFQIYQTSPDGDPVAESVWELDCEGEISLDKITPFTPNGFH

Structure (SMILES) | selectivity D1R over D5R (D1R [1]) | also measured
COc1cc2c(cc1O)C(c1ccccc1)CNCC2 (stereo not drawn) [Compound 6a] | up to 3 fold | 
COc1cc2c(cc1O)C(c1ccccc1Cl)CNCC2 (stereo not drawn) [Compound 6b] | up to 3 fold | 
COc1cc2c(cc1O)C(c1c(Cl)cccc1Cl)CNCC2 (stereo not drawn) [Compound 6c] |  | selectivity D5R over D1R (D5R): 3 fold
COc1cc2c(cc1O)C(c1ccccc1Br)CNCC2 (stereo not drawn) [Compound 6d] | up to 3 fold | 
Oc1cc2c(cc1O)C(c1ccccc1Br)CNCC2 (stereo not drawn) [Compound 7] |  | increase in D1R affinity versus C7 methoxy analog 6d (D1R [1]; catechol 7 compared with 6d): roughly 3 fold
COc1cc2c(cc1O)C(c1ccccc1Cl)CN(C)CC2 (stereo not drawn) [Compound 10a] |  | agonist activity (D1R [2]): No agonist activity was detected
